Columns and labels:
Type in all cases: cell-based
[1] = biological target: Sodium-dependent serotonin transporter (Homo sapiens, UniProt P31645); assay: Inhibition of human SERT expressed in HEK293 cells assessed as reduction in [3H]5-HT uptake by micro beta scintillation counting analysis
[2] = biological target: Sodium-dependent noradrenaline transporter (Homo sapiens, UniProt P23975); assay: Inhibition of human NET expressed in HEK293 cells assessed as reduction in [3H]-NE uptake by micro beta scintillation counting analysis
[3] = biological target: Sodium-dependent dopamine transporter (Homo sapiens, UniProt Q01959); assay: Inhibition of human DAT expressed in HEK293 cells assessed as reduction in [3H]-DA uptake by micro beta scintillation counting analysis
Sodium-dependent dopamine transporter, sequence (Q01959 whole entry): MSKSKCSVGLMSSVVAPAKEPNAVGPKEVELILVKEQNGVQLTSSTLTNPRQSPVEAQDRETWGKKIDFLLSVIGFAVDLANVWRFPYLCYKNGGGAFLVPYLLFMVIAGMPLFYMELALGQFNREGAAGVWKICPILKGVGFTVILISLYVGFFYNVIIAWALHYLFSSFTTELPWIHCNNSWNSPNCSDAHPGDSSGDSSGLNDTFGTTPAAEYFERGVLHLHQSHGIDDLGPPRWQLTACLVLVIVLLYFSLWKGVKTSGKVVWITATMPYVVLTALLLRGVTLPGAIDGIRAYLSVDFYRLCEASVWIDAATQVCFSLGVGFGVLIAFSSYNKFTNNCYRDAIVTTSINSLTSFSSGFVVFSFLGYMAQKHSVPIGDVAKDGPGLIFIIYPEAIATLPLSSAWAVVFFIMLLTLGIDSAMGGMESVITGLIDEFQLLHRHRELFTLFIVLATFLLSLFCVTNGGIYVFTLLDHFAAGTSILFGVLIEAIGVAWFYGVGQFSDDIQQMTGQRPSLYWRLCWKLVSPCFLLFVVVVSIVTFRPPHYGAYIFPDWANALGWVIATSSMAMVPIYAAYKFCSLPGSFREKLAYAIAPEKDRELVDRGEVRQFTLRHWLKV

Sodium-dependent noradrenaline transporter, sequence (P23975 whole entry): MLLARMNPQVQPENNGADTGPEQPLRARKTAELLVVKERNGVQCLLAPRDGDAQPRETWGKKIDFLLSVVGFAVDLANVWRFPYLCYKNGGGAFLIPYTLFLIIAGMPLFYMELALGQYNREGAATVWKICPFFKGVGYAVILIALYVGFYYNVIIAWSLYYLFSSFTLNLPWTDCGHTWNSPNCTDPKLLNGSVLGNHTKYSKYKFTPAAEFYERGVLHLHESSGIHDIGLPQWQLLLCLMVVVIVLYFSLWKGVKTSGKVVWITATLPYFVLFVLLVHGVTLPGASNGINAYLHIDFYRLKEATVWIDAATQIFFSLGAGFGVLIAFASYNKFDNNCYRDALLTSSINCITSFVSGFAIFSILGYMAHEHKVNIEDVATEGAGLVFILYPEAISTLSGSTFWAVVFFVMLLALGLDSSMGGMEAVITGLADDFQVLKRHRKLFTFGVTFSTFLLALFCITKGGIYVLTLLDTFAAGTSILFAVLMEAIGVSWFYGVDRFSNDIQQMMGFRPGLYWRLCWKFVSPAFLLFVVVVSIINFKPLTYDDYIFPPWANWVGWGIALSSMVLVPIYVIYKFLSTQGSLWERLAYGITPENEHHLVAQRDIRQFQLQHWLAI
Sodium-dependent serotonin transporter, sequence (P31645 whole entry): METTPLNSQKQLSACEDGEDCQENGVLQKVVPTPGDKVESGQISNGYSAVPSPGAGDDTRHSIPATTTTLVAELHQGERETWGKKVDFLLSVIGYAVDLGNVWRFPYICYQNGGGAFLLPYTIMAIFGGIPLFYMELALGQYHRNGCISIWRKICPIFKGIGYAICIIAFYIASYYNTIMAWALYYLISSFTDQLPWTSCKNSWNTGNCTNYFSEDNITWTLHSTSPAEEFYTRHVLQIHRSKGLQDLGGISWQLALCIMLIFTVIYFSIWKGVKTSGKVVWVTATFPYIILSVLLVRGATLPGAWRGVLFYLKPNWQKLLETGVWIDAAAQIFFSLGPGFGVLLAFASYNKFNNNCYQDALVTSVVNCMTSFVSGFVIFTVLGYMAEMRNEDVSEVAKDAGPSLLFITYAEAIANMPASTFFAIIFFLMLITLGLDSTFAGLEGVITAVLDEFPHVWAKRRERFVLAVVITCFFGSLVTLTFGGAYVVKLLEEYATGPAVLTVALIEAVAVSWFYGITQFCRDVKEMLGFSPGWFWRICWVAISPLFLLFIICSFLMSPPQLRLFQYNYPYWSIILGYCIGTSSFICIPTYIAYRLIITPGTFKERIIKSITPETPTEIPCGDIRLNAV

Which IC50 [1] does the source give for `O=C(NCCCN1CCN(c2ncccn2)CC1)c1cc(Cl)cc(Cl)c1` here?
The IC50 was over 10 µM.

And the IC50 [2]?
The IC50 was over 10 µM.

What about the IC50 [3] of the same compound?
The IC50 was over 10 µM.

With `O=C(NCCCN1CCN(c2cccc(Cl)c2Cl)CC1)c1cc2ccccc2s1` as the compound, how does the IC50 [1] read?
The IC50 was 0.4 µM.

And the IC50 [2]?
The IC50 was 3.66 µM.

For `O=C(NCCCN1CCN(c2ncccn2)CC1)c1ccc2ccccc2n1`, which IC50 [1] is on record?
Its IC50 is over 10 µM.

And the IC50 [2]?
Its IC50 is over 10 µM.

What about the IC50 [3] of the same compound?
Its IC50 is over 10 µM.

For `O=C(NCCCN1CCN(c2ccccn2)CC1)c1cccc2ccccc12`, which IC50 [1] is on record?
Its IC50 is over 10 µM.

What about the IC50 [2] of the same compound?
Its IC50 is over 10 µM.

What about the IC50 [3] of the same compound?
The IC50 was over 10 µM.

With `O=C(NCCCN1CCN(c2ncccn2)CC1)c1cccc2ccccc12` as the compound, how does the IC50 [1] read?
The IC50 was over 10 µM.

What about the IC50 [2] of the same compound?
The IC50 was over 10 µM.

And the IC50 [3]?
The IC50 was over 10 µM.

What does the source list for `Cc1ccc(N2CCN(CCCNC(=O)c3ccc4ccccc4c3)CC2)cc1`?
IC50 [1]: 0.46 µM; IC50 [2]: 2.69 µM

How did the IC50 [1] turn out when `O=C(NCCCN1CCN(c2ccc(C(F)(F)F)cc2)CC1)c1cc2ccccc2o1` was run?
The IC50 was 0.741 µM.

And the IC50 [2]?
Its IC50 is over 10 µM.

Which results are given for `Cc1ccc(N2CCN(CCCNC(=O)c3ccc4ccccc4n3)CC2)cc1`?
IC50 [1]: 0.23 µM; IC50 [2]: > 10 µM

With `O=C(NCCCN1CCN(c2ccccn2)CC1)c1ccc2ccccc2n1` as the compound, how does the IC50 [1] read?
Its IC50 is 6.94 µM.

And the IC50 [2]?
The IC50 was over 10 µM.

And the IC50 [3]?
The IC50 was over 10 µM.

`O=C(NCCCN1CCN(c2cccc(Cl)c2Cl)CC1)c1cc(Cl)cc(Cl)c1` was tested. Which IC50 [1] did it give?
Its IC50 is over 10 µM.

And the IC50 [2]?
Its IC50 is over 10 µM.

What about the IC50 [3] of the same compound?
Its IC50 is over 10 µM.

What does the source list for `O=C(NCCCN1CCN(c2ccc(Cl)cc2)CC1)c1ccc2ccccc2c1`?
IC50 [1]: 0.28 µM; IC50 [2]: > 10 µM

With `O=C(NCCCN1CCN(c2ccc(Cl)cc2)CC1)c1ccc2ccccc2n1` as the compound, how does the IC50 [1] read?
Its IC50 is 1.32 µM.

What about the IC50 [2] of the same compound?
Its IC50 is over 10 µM.

Which IC50 [1] does the source give for `O=C(NCCCN1CCN(c2ccc(Cl)cc2)CC1)c1cc2ccccc2s1` here?
The IC50 was 0.55 µM.

And the IC50 [2]?
Its IC50 is 1.34 µM.

Which IC50 [1] does the source give for `O=C(NCCCN1CCN(c2ccc(Cl)c(Cl)c2)CC1)c1ccc2ccccc2n1` here?
The IC50 was 0.273 µM.

What about the IC50 [2] of the same compound?
Its IC50 is over 10 µM.

How did the IC50 [1] turn out when `O=C(NCCCN1CCN(c2ncccn2)CC1)c1ccc2ccccc2c1` was run?
The IC50 was over 10 µM.

And the IC50 [2]?
The IC50 was over 10 µM.

What about the IC50 [3] of the same compound?
The IC50 was over 10 µM.

`O=C(NCCCN1CCN(c2cccc(Cl)c2Cl)CC1)c1ccc2ccccc2c1` was tested. Which IC50 [1] did it give?
The IC50 was 0.74 µM.

And the IC50 [2]?
Its IC50 is 0.26 µM.

And the IC50 [3]?
The IC50 was over 10 µM.

What does the source list for `COc1ccccc1N1CCN(CCCNC(=O)c2ccc3ccccc3n2)CC1`?
IC50 [1]: > 10 µM; IC50 [2]: > 10 µM

`O=C(NCCCN1CCN(c2cccc(Cl)c2Cl)CC1)c1cccc2ccccc12` was tested. Which IC50 [1] did it give?
Its IC50 is 4.27 µM.

And the IC50 [2]?
Its IC50 is over 10 µM.

And the IC50 [3]?
The IC50 was over 10 µM.

With `O=C(NCCCN1CCN(c2ccccn2)CC1)c1cc(Cl)cc(Cl)c1` as the compound, how does the IC50 [1] read?
The IC50 was over 10 µM.

And the IC50 [2]?
Its IC50 is over 10 µM.

What about the IC50 [3] of the same compound?
The IC50 was over 10 µM.

`O=C(NCCCN1CCN(c2ccc(Cl)cc2Cl)CC1)c1ccc2ccccc2n1` was tested. Which IC50 [1] did it give?
The IC50 was 6.85 µM.

And the IC50 [2]?
Its IC50 is over 10 µM.

Which IC50 [1] does the source give for `O=C(NCCCN1CCN(c2cccc(Cl)c2Cl)CC1)c1ccc(-c2ccccc2)cc1` here?
The IC50 was 1.01 µM.

And the IC50 [2]?
The IC50 was 3.15 µM.

For `O=C(NCCCN1CCN(c2cccc(Cl)c2Cl)CC1)c1cc2ccccc2o1`, which IC50 [1] is on record?
The IC50 was over 10 µM.

And the IC50 [2]?
The IC50 was over 10 µM.

Which results are given for `COc1ccccc1N1CCN(CCCNC(=O)c2ccc(-c3ccccc3)cc2)CC1`?
IC50 [1]: 4.46 µM; IC50 [2]: 4.96 µM

What does the source list for `O=C(NCCCN1CCN(c2ccccn2)CC1)c1ccc2ccccc2c1`?
IC50 [1]: 9.64 µM; IC50 [2]: > 10 µM; IC50 [3]: > 10 µM

What does the source list for `O=C(NCCCN1CCN(c2ccccc2)CC1)c1ccc2ccccc2n1`?
IC50 [1]: > 10 µM; IC50 [2]: > 10 µM

With `COc1ccc(N2CCN(CCCNC(=O)c3ccc4ccccc4n3)CC2)cc1` as the compound, how does the IC50 [1] read?
The IC50 was 0.23 µM.

And the IC50 [2]?
The IC50 was 6.07 µM.

Which IC50 [1] does the source give for `O=C(NCCCN1CCN(c2cccc(Cl)c2Cl)CC1)c1ccc2ccccc2n1` here?
Its IC50 is 1.17 µM.

And the IC50 [2]?
Its IC50 is 2.55 µM.

And the IC50 [3]?
Its IC50 is over 10 µM.

— ChEMBL document CHEMBL4229444, “Design, synthesis and docking study of 4-arylpiperazine carboxamides as monoamine neurotransmitters reuptake inhibitors” (Bioorg Med Chem, 2018)
